# Tests used:
# Heteranthera limosa = experiment: Test B flooded paddy test; type: in vivo; details: Flood, 250 g ai/ha; 0 to 100 scale where 0 is no effect and 100 is complete control
# In short: (§1)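 Plants at 2-leaf stage; pots flooded to 3 cm above soil and compound applied directly into paddy water, depth held throughout. After 13 to 15 days in greenhouse, visual rating versus controls on 0 (no effect) to 100 (complete control) scale.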
# giant foxtail [1] = experiment: Test A preemergence; type: in vivo, Setaria faberii; details: for Foxtail, Giant plant response rating: 500 g ai/ha
# In short: (§2)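 Compounds in non-phytotoxic solvent with surfactant applied as soil spray preemergence, or postemergence to plants 2-10 cm at one- to two-leaf stage, in loam/sand. After approximately 10 days in greenhouse, injury rated visually versus untreated controls, 0 (no effect) to 100 (complete control).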
# morningglory [2] = experiment: Test A preemergence; type: in vivo, Ipomoea spp.; details: for Morningglory plant response rating: 500 g ai/ha
# In short: as §2
# pigweed [3] = experiment: Test A preemergence; type: in vivo, Amaranthus retroflexus; details: for Pigweed plant response rating: 500 g ai/ha
# In short: as §2
# rice = experiment: Test B flooded paddy test; type: in vivo, Oryza sativa; details: Flood, 250 g ai/ha; 0 to 100 scale where 0 is no effect and 100 is complete control
# In short: as §1
# velvetleaf [4] = experiment: Test A postemergence; type: in vivo, Abutilon theophrasti
# In short: as §2
# morningglory [5] = experiment: Test A postemergence; type: in vivo, Ipomoea spp.
# In short: as §2
# wheat [6] = experiment: Test A preemergence; type: in vivo, Triticum aestivum; details: for Wheat plant response rating: 500 g ai/ha
# In short: as §2
# barnyardgrass [7] = experiment: Test A preemergence; type: in vivo, Echinochloa crus-galli; details: for Barnyardgrass plant response rating: 500 g ai/ha
# In short: as §2
# barnyardgrass [8] = experiment: Test A postemergence; type: in vivo, Echinochloa crus-galli
# In short: as §2
# large (Lg) crabgrass [9] = experiment: Test A postemergence; type: in vivo, Digitaria sanguinalis
# In short: as §2
# giant foxtail [10] = experiment: Test A postemergence; type: in vivo, Setaria faberii
# In short: as §2
# corn [11] = experiment: Test A preemergence; type: in vivo, Zea mays; details: for Corn plant response rating: 500 g ai/ha
# In short: as §2
# barnyardgrass [12] = experiment: Test B flooded paddy test; type: in vivo, Echinochloa crus-galli; details: Flood, 250 g ai/ha; 0 to 100 scale where 0 is no effect and 100 is complete control
# In short: as §1
# pigweed [13] = experiment: Test A postemergence; type: in vivo, Amaranthus retroflexus
# In short: as §2
# wheat [14] = experiment: Test A postemergence; type: in vivo, Triticum aestivum
# In short: as §2
# large (Lg) crabgrass [15] = experiment: Test A preemergence; type: in vivo, Digitaria sanguinalis; details: for Crabgrass, Large plant response rating: 500 g ai/ha
# In short: as §2
# velvetleaf [16] = experiment: Test A preemergence; type: in vivo, Abutilon theophrasti; details: for Velvetleaf plant response rating: 500 g ai/ha
# In short: as §2
# sedge, umbrella = experiment: Test B flooded paddy test; type: in vivo, Cyperus difformis; details: Flood, 250 g ai/ha; 0 to 100 scale where 0 is no effect and 100 is complete control
# In short: as §1
# corn [17] = experiment: Test A postemergence; type: in vivo, Zea mays
# In short: as §2
# [18] = 0 to 100 scale where 0 is no effect and 100 is complete control
# [19] = 125 g ai/ha, 0 to 100 scale where 0 is no effect and 100 is complete control
# [20] = 500 g ai/ha, 0 to 100 scale where 0 is no effect and 100 is complete control
# [21] = 0 to 100 scale, 0 no effect, 100 complete control, approx. 10 days
# [22] = 500 g ai/ha, 0 to 100 scale, 0 no effect, 100 complete control
structure (smiles),measurement,setting,value
N#Cc1ccc(Oc2ncc(Cl)cn2)c(-n2cc(Br)cn2)c1 [Compound 213],"Plant response rating, Ducksalad",Heteranthera limosa,0
same,"Foxtail, Giant plant response rating (0 to 100 scale)",giant foxtail [1]; 125 g ai/ha,20
same,"Foxtail, Giant plant response rating",giant foxtail [1]; [18],100
same,Morningglory plant response rating (0 to 100 scale),morningglory [2]; 125 g ai/ha,0
same,Morningglory plant response rating,morningglory [2]; [18],10
same,Pigweed plant response rating (0 to 100 scale),pigweed [3]; 125 g ai/ha,50
same,Pigweed plant response rating,pigweed [3]; [18],100
same,"Plant response rating, Rice",rice,0
same,Velvetleaf plant response rating,velvetleaf [4]; [19],10
same,"Plant response rating, Velvetleaf",velvetleaf [4]; [20],20
same,Morningglory plant response rating,morningglory [5]; [19],20
same,"Plant response rating, Morningglory",morningglory [5]; [20],30
same,Wheat plant response rating (0 to 100 scale),wheat [6]; 125 g ai/ha,0
same,Wheat plant response rating,wheat [6]; [18],0
same,"Barnyardgrass plant response rating (0 to 100 scale, 0 is no effect, 100 is complete control)",barnyardgrass [7]; 125 g ai/ha,0
same,Barnyardgrass plant response rating,barnyardgrass [7]; [18],10
same,Barnyardgrass plant response rating,barnyardgrass [8]; [19],0
same,"Plant response rating, Barnyardgrass",barnyardgrass [8]; [20],10
same,"Crabgrass, Large plant response rating",large (Lg) crabgrass [9]; [19],20
same,"Plant response rating, Crabgrass, Large",large (Lg) crabgrass [9]; [20],70
same,"Foxtail, Giant plant response rating",giant foxtail [10]; [19],10
same,"Plant response rating, Foxtail, Giant",giant foxtail [10]; [20],30
same,Corn plant response rating (0 to 100 scale),corn [11]; 125 g ai/ha,0
same,Corn plant response rating,corn [11]; [18],0
same,"Plant response rating, Barnyardgrass",barnyardgrass [12],0
same,Pigweed plant response rating,pigweed [13]; [19],100
same,"Plant response rating, Pigweed",pigweed [13]; [20],100
same,Wheat plant response rating,wheat [14]; [19],0
same,"Plant response rating, Wheat",wheat [14]; [20],0
same,"Crabgrass, Large plant response rating (0 to 100 scale)",large (Lg) crabgrass [15]; 125 g ai/ha,10
same,"Crabgrass, Large plant response rating",large (Lg) crabgrass [15]; [18],100
same,Velvetleaf plant response rating (0 to 100 scale),velvetleaf [16]; 125 g ai/ha,0
same,Velvetleaf plant response rating,velvetleaf [16]; [18],0
same,"Plant response rating, Sedge, Umbrella","sedge, umbrella",70
same,Corn plant response rating,corn [17]; [19],0
same,"Plant response rating, Corn",corn [17]; [20],30
FC(F)(F)c1ccn(-c2ccccc2Sc2ncc(Cl)cn2)n1 [Compound 28],"Plant response rating, Ducksalad",Heteranthera limosa,35
same,"Plant response rating, Foxtail, Giant",giant foxtail [1]; [19],0
same,"Foxtail, Giant plant response rating",giant foxtail [1]; [21],10
same,"Plant response rating, Morningglory",morningglory [2]; [19],0
same,Morningglory plant response rating,morningglory [2]; [21],0
same,"Plant response rating, Pigweed",pigweed [3]; [19],0
same,Pigweed plant response rating,pigweed [3]; [21],40
same,"Plant response rating, Rice",rice,0
same,"Plant response rating, Velvetleaf",velvetleaf [4]; [19],0
same,"Plant response rating, Velvetleaf",velvetleaf [4]; [22],30
same,"Plant response rating, Morningglory",morningglory [5]; [19],10
same,"Plant response rating, Morningglory",morningglory [5]; [22],10
same,"Plant response rating, Wheat",wheat [6]; [19],0
same,Wheat plant response rating,wheat [6]; [21],0
same,"Plant response rating, Barnyardgrass",barnyardgrass [7]; [19],0
same,Barnyardgrass plant response rating,barnyardgrass [7]; [21],10
same,"Plant response rating, Barnyardgrass",barnyardgrass [8]; [19],0
same,"Plant response rating, Barnyardgrass",barnyardgrass [8]; [22],10
same,"Plant response rating, Crabgrass, Large",large (Lg) crabgrass [9]; [19],0
same,"Plant response rating, Crabgrass, Large",large (Lg) crabgrass [9]; [22],20
same,"Plant response rating, Foxtail, Giant",giant foxtail [10]; [19],0
same,"Plant response rating, Foxtail, Giant",giant foxtail [10]; [22],10
same,"Plant response rating, Corn",corn [11]; [19],0
same,Corn plant response rating,corn [11]; [21],0
same,"Plant response rating, Barnyardgrass",barnyardgrass [12],0
same,"Plant response rating, Pigweed",pigweed [13]; [19],10
same,"Plant response rating, Pigweed",pigweed [13]; [22],30
same,"Plant response rating, Wheat",wheat [14]; [19],0
same,"Plant response rating, Wheat",wheat [14]; [22],0
same,"Plant response rating, Crabgrass, Large",large (Lg) crabgrass [15]; [19],0
same,"Crabgrass, Large plant response rating",large (Lg) crabgrass [15]; [21],10
same,"Plant response rating, Velvetleaf",velvetleaf [16]; [19],0
same,Velvetleaf plant response rating,velvetleaf [16]; [21],0
same,"Plant response rating, Sedge, Umbrella","sedge, umbrella",0
same,"Plant response rating, Corn",corn [17]; [19],0
same,"Plant response rating, Corn",corn [17]; [22],20
